The values below come from PubChem BioAssay (NCI).

Test systems include HS 578T breast; OVCAR-5 ovarian; NCI-H460 lung; IGROV1 ovarian; SK-MEL-5 melanoma; T-47D breast; LXFL 529 NSCLC; KM20L2 colon; HOP-18 NSCLC.
Holding throughout (test): NCI anticancer screen, dose series, 48 h

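96-well plates; 48 h exposure; 5 concentrations. Endpoints by linear interpolation between flanking doses. Not reached: highest tested concentration assigned. Here, GI50 denotes the concentration required for 50% inhibition of growth. TGI: total growth inhibition.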

For the compound `Oc1ccc(Cl)cc1CNc1nc2ccccc2[nH]1`, the GI50 was 13.6 µM with HS 578T breast; 17.8 µM with OVCAR-5 ovarian; 12.5 µM in the test on NCI-H460 lung; 18.3 µM with IGROV1 ovarian; 13 µM in the test on SK-MEL-5 melanoma; 13.3 µM in the test on T-47D breast. Moreover, the TGI turned out to be 42.1 µM in the test with HS 578T breast; 34.4 µM with OVCAR-5 ovarian; 26.3 µM in the test on NCI-H460 lung; 41.3 µM in the test with IGROV1 ovarian; 25.6 µM in the test on SK-MEL-5 melanoma; 47.9 µM in the test with T-47D breast.
As to `O=C(Nc1ccc(I)cc1F)c1cc(Cl)ccc1O`, the GI50 was 0.325 µM in the test with HS 578T breast; 3.55 µM in the test with OVCAR-5 ovarian; 0.434 µM with NCI-H460 lung; 0.36 µM with IGROV1 ovarian; 0.234 µM in the test with SK-MEL-5 melanoma; 0.294 µM in the test on T-47D breast. The TGI with HS 578T breast is 3.19 µM; in the test on OVCAR-5 ovarian it was > 100 µM; with NCI-H460 lung, > 26.9 µM; with IGROV1 ovarian, > 100 µM; in the test on SK-MEL-5 melanoma, 0.596 µM; with T-47D breast, 2.57 µM.
Consider `CC(C)COC(=O)c1ccc2[nH]c(O)c(C=Nc3ccc(S(N)(=O)=O)cc3)c2c1`, for which the GI50 with HS 578T breast was 1.45 µM; in the test on OVCAR-5 ovarian it was 1.87 µM; in the test on NCI-H460 lung, 0.787 µM; in the test on IGROV1 ovarian, 1.75 µM; in the test with SK-MEL-5 melanoma it was 1.65 µM; in the test with T-47D breast, 2.51 µM. The TGI with HS 578T breast is 6.07 µM; with OVCAR-5 ovarian, 13.8 µM; in the test on NCI-H460 lung, 3.41 µM; with IGROV1 ovarian, 8.01 µM; with SK-MEL-5 melanoma it was 4.46 µM; with T-47D breast it was 12.6 µM.
Regarding `COc1ccc(C2=CC(c3ccc(OC)c(OC)c3)c3c(c4ccccc4oc3=O)O2)cc1OC` (stereo not given), the GI50 was 0.957 µM with HS 578T breast; 6.33 µM with OVCAR-5 ovarian; 1.9 µM in the test with NCI-H460 lung; 2.47 µM in the test with IGROV1 ovarian; 0.363 µM with SK-MEL-5 melanoma; 3.66 µM with T-47D breast. Moreover, the TGI was > 26.9 µM with HS 578T breast; > 100 µM in the test with OVCAR-5 ovarian; > 100 µM in the test with NCI-H460 lung; > 31.2 µM in the test on IGROV1 ovarian; > 25.4 µM in the test on SK-MEL-5 melanoma; > 100 µM in the test with T-47D breast.
Consider `COc1ccc2nc(NC(=O)c3cccnc3Nc3cc(OC)c(OC)c(OC)c3)sc2c1`, for which the GI50 in the test with HS 578T breast is 5.77 µM; with OVCAR-5 ovarian, 14.5 µM; in the test with NCI-H460 lung it was 7.42 µM; with IGROV1 ovarian, 13.2 µM; in the test on SK-MEL-5 melanoma, 11.3 µM; in the test with T-47D breast, 5.06 µM. Also, the TGI in the test on HS 578T breast amounted to 30.9 µM; in the test with OVCAR-5 ovarian, 29 µM; in the test on NCI-H460 lung, 24 µM; with IGROV1 ovarian, 28.5 µM; with SK-MEL-5 melanoma it was 47.7 µM; with T-47D breast it was 51.3 µM.
For the compound `CN(C)C(=S)/N=c1\ss/c(=N\S(=O)(=O)c2ccccc2)n1N(C)C`, the TGI with LXFL 529 NSCLC, in the test on NCI-H460 lung, in the test with IGROV1 ovarian, with SK-MEL-5 melanoma, in the test on KM20L2 colon and in the test with HOP-18 NSCLC was > 100 µM throughout.
Take `CN(/N=N/c1nc(OCc2ccccc2)c2[nH]cnc2n1)C(=O)Oc1ccc([N+](=O)[O-])cc1`: the GI50 with HS 578T breast is 8.61 µM; in the test with OVCAR-5 ovarian, 11.5 µM; in the test with NCI-H460 lung, 6.71 µM; in the test with IGROV1 ovarian it was 12.2 µM; in the test on SK-MEL-5 melanoma, 6.89 µM; in the test on T-47D breast, 14.2 µM. The TGI in the test on HS 578T breast was 29.6 µM; in the test on OVCAR-5 ovarian, > 50 µM; in the test on NCI-H460 lung it was 31.3 µM; in the test with IGROV1 ovarian it was 31.2 µM; in the test with SK-MEL-5 melanoma it was 16.3 µM; in the test on T-47D breast it was 32.7 µM.
On to `CCC(Oc1ccc(OC)c2ccccc(=O)c12)C(=O)O` (stereo not given), for which the TGI in the test with LXFL 529 NSCLC, in the test with OVCAR-5 ovarian, in the test with NCI-H460 lung, in the test on IGROV1 ovarian and in the test on SK-MEL-5 melanoma was > 100 µM each time.
Consider `CO[C@H]1CC(c2ccc[nH]2)=N[C@]12O[C@@H](C)C[C@@H]1CCCCCCCc3ccc([nH]3)[C@H]12`, for which the GI50 in the test on HS 578T breast was 0.888 µM; in the test on OVCAR-5 ovarian, 1.25 µM; with NCI-H460 lung it was 0.813 µM; in the test with IGROV1 ovarian it was 1.38 µM; in the test with SK-MEL-5 melanoma, 0.527 µM; with T-47D breast, 0.732 µM. Further, the TGI was 7.11 µM in the test with HS 578T breast; 6.22 µM in the test with OVCAR-5 ovarian; 6.07 µM in the test with NCI-H460 lung; 10.8 µM with IGROV1 ovarian; 1.17 µM in the test with SK-MEL-5 melanoma; > 19.2 µM with T-47D breast.
In the case of `Clc1nc(Cl)c2ncn(Cc3ccc(Cn4cnc5c(Cl)nc(Cl)nc54)cc3)c2n1`, the TGI in the test on HS 578T breast is > 40.2 µM; in the test with OVCAR-5 ovarian, 10.9 µM; with NCI-H460 lung, 22.2 µM; with IGROV1 ovarian, 20.6 µM; with SK-MEL-5 melanoma it was 20.8 µM; in the test with T-47D breast it was > 36.7 µM. The GI50 in the test on OVCAR-5 ovarian is 2.03 µM; in the test with NCI-H460 lung, 4.75 µM; with IGROV1 ovarian, 6.08 µM; in the test with SK-MEL-5 melanoma it was 2.13 µM; in the test on T-47D breast it was 12.4 µM.
Turning to `COc1cc(Cl)cc(-c2nn(-c3cccc(NC(=O)Nc4ccc(Cl)c(C(F)(F)F)c4)c3)cc2-c2ccncc2)c1`, the GI50 with HS 578T breast was 4.29 µM; in the test on OVCAR-5 ovarian, 2.13 µM; in the test with NCI-H460 lung, 0.77 µM; with IGROV1 ovarian, 3.2 µM; with SK-MEL-5 melanoma, 1.54 µM; with T-47D breast, 1.25 µM. The TGI in the test with HS 578T breast was determined as 67.7 µM; with OVCAR-5 ovarian, 7.15 µM; in the test with NCI-H460 lung, 4.08 µM; in the test with IGROV1 ovarian, 29.1 µM; in the test on SK-MEL-5 melanoma it was 2.93 µM; in the test on T-47D breast, 8.02 µM.
Consider `C=CCCCc1ccc(C(O)CCCCCCCCCCCC)o1` (stereo not given), for which the GI50 in the test on HS 578T breast was 25.5 µM; in the test on OVCAR-5 ovarian it was 15.9 µM; in the test on NCI-H460 lung it was 22 µM; with IGROV1 ovarian, 19.5 µM; with SK-MEL-5 melanoma, 18.5 µM; in the test on T-47D breast, 15.1 µM. The TGI amounted to 55.2 µM in the test with HS 578T breast; 30.4 µM in the test with OVCAR-5 ovarian; 60.7 µM in the test on NCI-H460 lung; 44.9 µM in the test with IGROV1 ovarian; 37.2 µM with SK-MEL-5 melanoma; 34.6 µM in the test on T-47D breast.
For the compound `Cc1cccc2nc3cccc(C(=O)NCCN(C)C)c3nc12`, the TGI in the test with OVCAR-5 ovarian was 5.97 µM; with NCI-H460 lung it was 16.5 µM; in the test on IGROV1 ovarian, 15.5 µM; with SK-MEL-5 melanoma it was 1.97 µM; in the test with HOP-18 NSCLC it was 84 µM.
